Test results from US20230050070A1, “Antimicrobial Composition” (ATLANTIC TECHNOLOGIECAL UNIVERSITY, priority 2019, published 2023).

System: various species of microorganism
Assay: Well diffusion / Kirby-Bauer test, zones of inhibition
Format: cell-based
Conditions: SA and ASA tested alone, without A^3IS
Experimental: The purpose of the Kirby-Bauer disk diffusion susceptibility test is to determine the sensitivity or resistance of pathogenic aerobic and facultative anaerobic bacteria to various antimicrobial compounds.
Escherichia coli (NCIMB 8545), Staphylococcus aureus (NCIMB 951 and Pseudomonas aeruginosa (NCIMB 8626) are grown on nutrient agar or in nutrient broth for 24 hrs at 37° C.
Candida albicans (NCIMB 3179) and Saccharomyces cerevisiae are grown on sabaroud dextrose agar or in sabaroud dextrose broth for 24 hrs at 37° C.,
Bacterial growth is monitored by measuring the culture optical density (OD) in a spectrophotometer (Anthos 2010) at a wavelength of 620 nm.
Agar plates are inoculated by swabbing overnight culture onto the plate surface. Plates are allowed to stand at room temperature for 15 minutes before use. Wells 8.2 mm diameter are bored into the surface of the agar. A 180 μl sample is placed into each well. The samples diffuse into the agar around the well and are assayed for an ability to produce a zone of inhibition. Plates are incubated for 24, 48 or 72 hrs and zones of inhibition are measured using an Autodata automatic zone reader. The diameter of zones, including the diameter of the well (8.2 mm), is recorded.
Different microbial strains were each plated out according to the above-mentioned methods. […]

| SMILES | antimicrobial activity |
| --- | --- |
| CC(=O)Oc1ccccc1C(=O)O [ASA, Acetyl salicylic acid] | no discernible activity |
| O=C(O)c1ccccc1O [SA, Salicylic acid] | no discernible activity |
